The record followed here is patent US20260151517A1, “SOMATOSTATIN RECEPTOR-TARGETING RADIOPHARMACEUTICALS AND USES THEREOF” (Nuclidium AG, priority 2024, published 2026).

Structures are written as SMILES. Where two headings read alike, the source gives them in different places. *1 amine or outer side, *2 acyl side, *3 side chain or, on linkers, in order; H or OH if unused. Where a SMILES comes first, the peptide text is derived from it. Bridges are numbered along the chain shown (N, C = ends). [ ]: non-standard residue; d: D form. The star is where a group is joined. NODAGA = O=C(O)CN1CCN(CC(=O)O)CCN(C(CCC(=O)*)C(=O)O)CC1; X1 = NC(=O)Nc1ccc(CC(N[*:1])C(=O)[*:2])cc1; Phe(4-Cl) = N[CH](Cc1ccc(Cl)cc1)C(=O)O

A short description of the data set: Biodistribution studies. The conditions noted are these: athymic nude Foxn1^nu, mouse, iv, 1 MBq, total radioactivity. The class given is in vivo, mice. The method, then:
The dose of the administered radiopharmaceutical was 1 MBq ([…]) diluted to 100 μL with saline solution. The mice were euthanized at 4 hours post-injection, and the organs of interest were collected, rinsed, blotted, weighed, and analyzed in a gamma counter. The results were expressed as the percentage of injected activity per gram of tissue (% IA/g) and reported as mean±standard deviation in Table 32.

Take `CC(O)C1NC(=O)C(CCCCN)NC(=O)C(Cc2ccc(NC(N)=O)cc2)NC(=O)C(Cc2ccc(O)cc2)NC(=O)C(NC(=O)C(Cc2ccc(Cl)cc2)NC(=O)CCC(C(=O)O)N2CCN(CC(=O)O)CCN(CC(=O)O)CC2)CSSCC(C(=O)NC(Cc2ccc(O)cc2)C(N)=O)NC1=O` (centres unmarked) [[^61Cu]Cu-NODAGA-LM3, metal not drawn] ({NODAGA}-[Phe(4-Cl)]CY[X1]KTCY-NH2; disulfide 2-7; configuration not given here): the tissue to tissue ratio at 4 h (in vivo, Tumor-to-organ uptake ratio Tumor/Blood) was determined as 181; the tissue to tissue ratio at 4 h (in vivo, Tumor-to-organ uptake ratio Tumor/Liver) came out at 26; the tissue to tissue ratio at 4 h (in vivo, Tumor-to-organ uptake ratio Tumor/Muscles) was 185; the tissue to tissue ratio at 4 h (in vivo, Tumor-to-organ uptake ratio Tumor/Pituitary) was determined as 5.3; the tissue to tissue ratio at 4 h (tumor / all organs except kidneys, 4 hours post-injection, read-out: tumor-to-organ uptake ratio, all the organs except for kidneys) is more than 5; the tissue to tissue ratio at 4 h (tumor/kidney, 4 hours post-injection, read-out: Tumor-to-organ uptake ratio Tumor/Kidney) came out at 4.9. Moreover, the tissue uptake at 4 h was found to be 0.61 ± 0.18 %ID/g (in vivo, Uptake [% IA/g] Adrenal); 0.11 ± 0.01 %ID/g (in vivo, Uptake [% IA/g] Blood); 0.42 ± 0.12 %ID/g (in vivo, Uptake [% IA/g] Bone); 19 ± 2.1 %ID/g (in vivo, Uptake [% IA/g] HEK-STT2-tumor); 0.17 ± 0.02 %ID/g (in vivo, Uptake [% IA/g] Heart); 0.58 ± 0.12 %ID/g (in vivo, Uptake [% IA/g] Intestine). In addition, the tissue uptake at 4 h runs as follows: (in vivo, Uptake [% IA/g] Liver) 0.73 ± 0.06 %ID/g; (in vivo, Uptake [% IA/g] Lung) 0.42 ± 0.05 %ID/g; (in vivo, Uptake [% IA/g] Muscle) 0.1 ± 0.02 %ID/g; (in vivo, Uptake [% IA/g] Pancreas) 0.44 ± 0.24 %ID/g; (in vivo, Uptake [% IA/g] Pituitary) 3.64 ± 0.31 %ID/g; (in vivo, Uptake [% IA/g] Spleen) 0.18 ± 0.02 %ID/g. Moreover, the tissue uptake at 4 h by setting is: (in vivo, Uptake [% IA/g] Stomach) 0.79 ± 0.13 %ID/g; (kidneys, 4 hours post-injection, 1 MBq i.v., read-out: Uptake [% IA/g] Kidneys) 3.87 ± 0.51 %ID/g.
